Here are results for 4 compounds from PubChem BioAssay (NCI).

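Grown in 96-well plates, cells were treated for 48 hours with each compound at five concentrations. Insufficient inhibition: endpoint recorded as highest concentration tested. TGI is the concentration that stops growth completely.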 Bounds are passed on as bounds.

Assay in all cases: inhibition of tumour cell growth, NCI panel, 48 h
The test system of assay [1] is BT-549 breast.
The subject of assay [2] is MOLT-4 leukemia.
Assay [3] concerns NCI-H23 lung.
Assay [4] concerns CCRF-CEM leukemia.
For assay [5], the system named is ACHN renal.
For assay [6], the system named is CAKI-1 renal.
The subject of assay [7] is SN12C renal.
Assay [8] relates to OVCAR-4 ovarian.
Assay [9] has as its system SNB-19 CNS.
Assay [10] relates to SR leukemia.
Assay [11] relates to HCC-2998 colon.

For `COC(=O)c1ccc(/C=C/C2=CC(=O)C=CC2=O)cc1`, the TGI in assay [1] was determined as 26.6 µM; in assay [2] it was 7.11 µM; in assay [3], 42.4 µM; in assay [4], 6.54 µM; in assay [5], 32.7 µM; in assay [6], 30.5 µM. Moreover, the TGI in assay [7] is 58 µM; in assay [8], 42 µM; in assay [9], above 43 µM; in assay [10] it was 12.7 µM; in assay [11] it was 38.5 µM.
In the case of `COC(=O)c1c(C)nc(C)c(N=O)c1-c1ccccc1C(F)(F)F`, the TGI in [1] was 33.6 µM; in [2], above 100 µM; in assay [3], 48.5 µM; in [4], above 100 µM; in assay [5], above 100 µM; in assay [6] it was 23 µM. The TGI is 38.6 µM in [7]; 31.8 µM in assay [8]; above 100 µM in assay [9]; above 100 µM in assay [10]; above 100 µM in assay [11].
As for `CCC1=C(C)C2=NC1=CC1=NC(=C(CC)/C1=C/O)C=C1N=C3C(=C1C)C(=O)C(C(=O)OC)C3=C1NC(=C2)C(C)C1CCC(=O)OC` (centres undefined), the TGI in [1], in assay [2], in assay [3], in assay [4], in [5] and in [6] was above 100 µM throughout. Further, the TGI in assay [7], in [8], in assay [9], in assay [10] and in assay [11] was above 100 µM in each case.
Consider `CCCCN(CCCC)CC(=O)c1ccc2cc(Cl)c3ccccc3c2c1`, for which the TGI in assay [1] is 41.8 µM; in assay [2], above 100 µM; in [3], above 100 µM; in assay [4], above 100 µM; in assay [5], 49 µM; in assay [6], 78.6 µM. In addition, the TGI in assay [7] is above 100 µM; in [8] it was 69.1 µM; in [9], above 100 µM; in assay [10] it was above 100 µM; in assay [11], 76.8 µM.
